Results on 30 compounds are retold here after PubChem BioAssay (NCI).

Structures are written as SMILES.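 Values below derive from 48-hour exposures of cells grown in 96-well plates, with endpoints linearly interpolated between the two concentrations bracketing the appropriate inhibition level. GI50 = concentration required for 50% inhibition of growth. TGI marks complete inhibition of growth.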 Bounds are passed on as bounds.

One assay deals with CCRF-CEM leukemia. The assay is described as follows: NCI anticancer screen, dose series, 48 h.
Regarding `CCN1CCN(c2nc(C)cc(N(CCNc3ccnc4cc(Cl)ccc34)Cc3ccc4c(c3)OCO4)n2)CC1`, the GI50 is 2120 nM and the TGI stood at 5.88 µM.
On to `Cn1cnc([N+](=O)[O-])c1Sc1nc2ccccc2[nH]1`, for which the TGI worked out at 90.1 µM.
As to `COc1ccc([C@H]2[C@@H](F)C(=O)N2c2cc(OC)c(OC)c(OC)c2)cc1F`, the GI50 was 47.1 nM and the TGI is greater than 100 µM.
In the case of `CCCCCCN(CCCCCC)C(=O)Cc1c2n(c3ccccc13)Cc1ccccc1-2`, the TGI was 90.1 µM.
On the same count and under the same terms, as for `CCCCCCCCC/C=C1\CCC(CN2CCOCC2)C1=O` (stereo not given), the figure is 6.56 µM; as for `CC(=O)OC1COC(n2ccc3cc(Br)c([N+](=O)[O-])cc32)C(OC(C)=O)C1OC(C)=O` (stereo not given), 81.7 µM; as for `CCOC(=O)NC(=O)c1cn(CCCO)c(=O)[nH]c1=O`, greater than 100 µM.
Still for that read-out and setting: as for `CN(C)c1nc(=Nc2ccc(N=c3nc(N(C)C)ss3)cc2)ss1`, the figure is 27.7 µM; as for `CCc1cc(Cc2cc(CC)c(NC(=O)C(=O)Cc3ccccn3)c(CC)c2Cl)c(Cl)c(CC)c1NC(=O)C(=O)Cc1ccccn1`, greater than 100 µM.
The same measure, in the same setting: as for `C[Si](C)(C)C1(Sc2ccccc2)SCCCS1`, the figure is 77.8 µM.
As for `Cc1cc(-c2ccc3nc(C4CCOCC4)n(CCOC(F)(F)F)c3c2)cn(C)c1=O`, the GI50 is 1710 nM and the TGI was greater than 100 µM.
In the same order, the values of `O=C(CSc1ccc(Cl)cc1)Nc1ccc(-c2nc3ccccc3s2)c(Cl)c1` are 3580 nM and greater than 100 µM.
For the compound `c1ccc(COc2cccc3ccc[n+](Cc4ccccc4)c23)cc1`, the TGI was greater than 100 µM.
Same read-out and setting: as for `O=S1(=O)OCCOS(=O)(=O)C1Br`, the figure is greater than 100 µM; as for `CCOC(=O)C(=C=C=C(c1ccccc1)c1ccccc1)C(=O)OCC`, 15.1 µM; as for `CC1=CC(O)(c2ccc(-c3ccccc3Cl)cc2)OC1=O` (stereo not given), greater than 100 µM.
With `CC(C)(C)OC(=O)N[C@H]1CC2(C=C(Cl)C(=O)C(Cl)=C2)OC1=O`, the TGI was 5.4 µM.
As for `OCCCCCNCc1cc2cc3c(cc2c2cc(OCc4ccccc4)ccc12)OCO3`, the GI50 was 2520 nM and the TGI was 6.11 µM.
`C/C(=N\NC(=S)NC(CCC(=O)O)C(=O)O)c1ccccn1` (stereo not given) came in with a TGI greater than 100 µM.
In the case of `C#CC1(O)CCC2C3CCc4cc(Oc5nc(F)nc(-c6c7ccccc7c7sc8ccccc8n67)n5)ccc4C3CC[C@@]21C` (stereo not given in full), the TGI is greater than 100 µM.
Same read-out and setting: as for `Cc1ccc(NC(=O)c2cc3cc(N=Nc4ccccc4C(=O)O)ccc3oc2=O)cc1`, the figure is greater than 100 µM; as for `COc1ccc(S(=O)(=O)NNS(C)(=O)=O)cc1`, greater than 100 µM.
Regarding `O=C(/C=C\c1ccc(Cl)c(Cl)c1)c1ccc(Cl)cc1Cl`, the GI50 is 4620 nM and the TGI worked out at 64.4 µM.
Compound `CC(=O)/C(=C\c1cccc([N+](=O)[O-])c1)C(=O)Nc1ccccc1C` came in with a TGI greater than 100 µM.
Still for that read-out and setting: to `CCN1c2ccccc2C(C(SC)S(=O)(=O)c2ccc(C)cc2)c2c1[nH]c(=O)n(C)c2=O` (stereo not given) belongs greater than 100 µM; to `COC(OC)C(C)CC(=O)N(C)C` (stereo not given), greater than 100 µM.

The next assay relates to SN12C renal. The assay is described as follows: NCI anticancer screen, dose series, 48 h.
`O=c1cc(-c2ccccc2)oc2cc(OCCCOc3ccc4c(=O)cc(-c5ccccc5)oc4c3)ccc12` showed a TGI greater than 100 µM.
On the same count and under the same terms, as for `COc1cc2c(c(OC)c1OC)-c1ccc(OC)c(=O)cc1C(NC(=O)c1ccc(N=[N+]=[N-])cc1)CC2` (stereo not given), the figure is greater than 41.9 µM.
Same read-out and setting: as for `Clc1ccc(C(c2ccc(Cl)cc2)c2ccccn2)cc1`, the figure is 31.7 µM; as for `CC(C)=Cc1cc(C(=O)Nc2ccc(Cl)c(Cl)c2)nc(N)n1`, greater than 100 µM.
With `CCN1CCN(c2nc(C)cc(N(CCNc3ccnc4cc(Cl)ccc34)Cc3ccc4c(c3)OCO4)n2)CC1`, the GI50 was 2580 nM and the TGI worked out at 8.27 µM.
Consider `Cn1cnc([N+](=O)[O-])c1Sc1nc2ccccc2[nH]1`, for which the TGI turned out to be 30.2 µM.
Turning to `COc1ccc([C@H]2[C@@H](F)C(=O)N2c2cc(OC)c(OC)c(OC)c2)cc1F`, the GI50 was 482 nM and the TGI was greater than 100 µM.
Turning to `CCCCCCN(CCCCCC)C(=O)Cc1c2n(c3ccccc13)Cc1ccccc1-2`, the TGI is greater than 100 µM.
Still for that read-out and setting: to `CCCCCCCCC/C=C1\CCC(CN2CCOCC2)C1=O` (stereo not given) belongs 13 µM.
Same read-out and setting: as for `CC(=O)OC1COC(n2ccc3cc(Br)c([N+](=O)[O-])cc32)C(OC(C)=O)C1OC(C)=O` (stereo not given), the figure is greater than 100 µM.
Same read-out and setting: to `CCOC(=O)NC(=O)c1cn(CCCO)c(=O)[nH]c1=O` belongs greater than 100 µM; to `CN(C)c1nc(=Nc2ccc(N=c3nc(N(C)C)ss3)cc2)ss1`, greater than 92.3 µM.
Take `CCc1cc(Cc2cc(CC)c(NC(=O)C(=O)Cc3ccccn3)c(CC)c2Cl)c(Cl)c(CC)c1NC(=O)C(=O)Cc1ccccn1`: the TGI was greater than 100 µM.
Same read-out and setting: to `C[Si](C)(C)C1(Sc2ccccc2)SCCCS1` belongs greater than 100 µM.
In the case of `Cc1cc(-c2ccc3nc(C4CCOCC4)n(CCOC(F)(F)F)c3c2)cn(C)c1=O`, the GI50 is 1220 nM and the TGI is 31.1 µM.
In the same order, the values of `O=C(CSc1ccc(Cl)cc1)Nc1ccc(-c2nc3ccccc3s2)c(Cl)c1` are 3570 nM and 72.8 µM.
On to `O=S1(=O)OCCOS(=O)(=O)C1Br`, for which the TGI is greater than 100 µM.
The same measure, in the same setting: as for `CCOC(=O)C(=C=C=C(c1ccccc1)c1ccccc1)C(=O)OCC`, the figure is 42.4 µM.
The same measure, in the same setting: as for `CC1=CC(O)(c2ccc(-c3ccccc3Cl)cc2)OC1=O` (stereo not given), the figure is greater than 100 µM; as for `CC(C)(C)OC(=O)N[C@H]1CC2(C=C(Cl)C(=O)C(Cl)=C2)OC1=O`, 33.3 µM.
Regarding `OCCCCCNCc1cc2cc3c(cc2c2cc(OCc4ccccc4)ccc12)OCO3`, the GI50 was 3400 nM and the TGI turned out to be 13.4 µM.
`C/C(=N\NC(=S)NC(CCC(=O)O)C(=O)O)c1ccccn1` (stereo not given) had a TGI greater than 100 µM.
Same read-out and setting: to `Cc1ccc(NC(=O)c2cc3cc(N=Nc4ccccc4C(=O)O)ccc3oc2=O)cc1` belongs greater than 100 µM; to `COc1ccc(S(=O)(=O)NNS(C)(=O)=O)cc1`, greater than 100 µM; to `O=C(/C=C\c1ccc(Cl)c(Cl)c1)c1ccc(Cl)cc1Cl`, greater than 100 µM.
`CC(=O)/C(=C\c1cccc([N+](=O)[O-])c1)C(=O)Nc1ccccc1C` showed a TGI greater than 100 µM.
The same measure, in the same setting: to `CCN1c2ccccc2C(C(SC)S(=O)(=O)c2ccc(C)cc2)c2c1[nH]c(=O)n(C)c2=O` (stereo not given) belongs greater than 100 µM.
On the same count and under the same terms, as for `COC(OC)C(C)CC(=O)N(C)C` (stereo not given), the figure is greater than 100 µM.
